# Results reported in article PMC11070508, “Design, synthesis, molecular docking, and molecular dynamic studies of novel quinazoline derivatives as phosphodiesterase 7 inhibitors” (Frontiers in Pharmacology, 2024).
# Entries after “also recorded” stand apart in the source; their conditions may differ. Where two headings read alike, the source gives them in different places.
# What was measured:
# PDE7 = conditions: cited from earlier work
# PDE7A = target: T1, PDE7A (Homo sapiens, UniProt Q13946); test: In vitro PDE7A inhibitory activity assay (fluorescence polarization PDE7A Assay Kit, BPS Bioscience); format: biochemical; conditions: for IC50: fluorescence polarization kit
# T1 construct: purchased BPS Bioscience 60373
# Protocol: The inhibitory activity of the compounds was determined as half maximal inhibitory concentration IC50 in μM ([Malik et al., 2008]; [Pekkinen et al., 2008]).
# All the newly synthesized compounds 4a-h and 5a-h were evaluated for in vitro PDE7A inhibitory activity using a fluorescence polarization PDE7A Assay Kit (Catalog no. 60373; BPS Bioscience) ([Malik et al., 2008]; [Pekkinen et al., 2008]). The assay is based on the binding of fluorescent nucleotide, a monophosphate generated by PDE7A to the binding agent. PDE7A catalyzes the hydrolysis of the phosphodiester bond in dye-labeled cyclic adenosine monophosphate (cAMP). Nanoparticle beads selectively bind the phosphate group in the nucleotide product. This increases the size of the nucleotide relative to unreacted cAMP. Since the degree of polarization of a fluorophore is inversely related to its molecular rotation, dyes attached to the slowly rotating nucleotide-bead complexes will not have time to reorient and therefore will emit highly polarized light. Conversely, dyes attached to the rapidly rotating cyclic monophosphates will obtain random orientations and emit light with low polarization.
# The PDE7A inhibitor screening assay kit comes in a convenient 384-well format, including purified PDE7A enzyme, fluorescently labeled PDE7A substrate (cAMP), binding agent, and PDE assay buffer for 384 enzyme reactions. The key to the PDE7A Assay Kit is the specific binding agent. Using this kit, only two simple steps on a microtiter plate are required for PDE7A reactions. First, the fluorescently labeled cAMP is incubated with a sample containing PDE7A for 1 h. Second, a binding agent is added to the reaction mix to produce a change in fluorescent polarization that can then be measured using a fluorescence reader. The microtiter plate reader is capable of excitation at wavelengths ranging from 485 ± 15 nm and detection of emitted light ranging from 528 ± 10 nm. […] The inhibitory activity of the tested compounds was determined as half maximal inhibitory concentration IC50 in μM compared to the two reference standards.
# This in vitro testing assay was carried out at the confirmatory diagnostic unit, Vacsera, Egypt, and the results are presented in Table 1 and represented in Figure 2. […] Halogen atoms are lipophilic substituents commonly used in the design of novel biologically active molecules.
# T1 sequence (Q13946 whole entry): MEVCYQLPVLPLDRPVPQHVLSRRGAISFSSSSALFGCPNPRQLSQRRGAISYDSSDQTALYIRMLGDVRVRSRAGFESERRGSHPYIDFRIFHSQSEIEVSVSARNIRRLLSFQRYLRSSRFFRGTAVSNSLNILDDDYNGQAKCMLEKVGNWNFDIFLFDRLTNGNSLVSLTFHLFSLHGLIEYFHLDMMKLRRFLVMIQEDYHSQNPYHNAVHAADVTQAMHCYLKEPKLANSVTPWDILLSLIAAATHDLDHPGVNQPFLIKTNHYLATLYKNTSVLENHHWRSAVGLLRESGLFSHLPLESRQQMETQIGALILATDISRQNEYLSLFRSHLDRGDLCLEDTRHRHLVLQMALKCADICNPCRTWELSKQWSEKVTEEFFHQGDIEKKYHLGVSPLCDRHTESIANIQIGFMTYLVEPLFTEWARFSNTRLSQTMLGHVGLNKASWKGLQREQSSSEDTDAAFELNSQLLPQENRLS
Structure (SMILES),IC50 (PDE7A),melting point,PDE7A inhibitory activity (result in words) (PDE7A),"IC50 (PDE7; ref Sánchez et al., 2013)","IC50 (PDE7; ref Elfeky et al., 2020)"
CC(C)c1nc(SCc2ccc(-c3ccccc3-c3nnn[nH]3)cc2)c2ccccc2n1 [C],–,–,–,770 nM,–
Cn1c(-c2ccoc2)nc(=O)c2ccccc21 [B],–,–,–,–,90 nM
CC(C)c1nc(SCc2ccc(-c3ccc(C(=O)O)cc3)cc2)c2ccccc2n1 [D],–,–,–,930 nM,–
"Clc1nc(NN=Cc2c[nH]c3ccc(Br)cc23)c2ccccc2n1 [Compound 4c, 4-[2-(5-bromo-1H-3-indolylmethylene)hydrazino]-2-chloroquinazoline]",0.478 µM,238 to 240 °C,–,–,–
"Clc1nc(NN=Cc2cccnc2)c2ccccc2n1 [Compound 4b, 2-Chloro-4-[2-(3-pyridylmethylene)hydrazino]quinazoline]",0.114 µM,< 280 °C,good potency; also recorded: high PDE7 inhibitory potencies; also recorded: highest selective PDE7A inhibitors,–,–
"Clc1ccc2nc(Cl)nc(NN=Cc3ccnc4ccccc34)c2c1 [Compound 4h, 2,6-Dichloro-4-[2-(4-quinolinylmethylene)hydrazino]quinazoline]",0.627 µM,< 280 °C,very low PDE7 inhibitory effect,–,–
"Clc1nc(NN=Cc2ccnc3ccccc23)c2ccccc2n1 [Compound 4d, 2-Chloro-4-[2-(4-quinolinylmethylene)hydrazino]quinazoline]",0.249 µM,205 to 207 °C,–,–,–
"Clc1ccc2nc(Cl)n3c(-c4cccnc4)nnc3c2c1 [Compound 5f, 5,9-Dichloro-3-(3-pyridyl)-1,2,4-triazolo[4,3-c]quinazoline]",0.142 µM,219 to 221 °C,good potency; also recorded: high PDE7 inhibitory potencies; also recorded: highest selective PDE7A inhibitors,–,–
"OCc1ccc(C=NNc2nc(Cl)nc3ccc(Cl)cc23)o1 [Compound 4e, 2,6-Dichloro-4-[2-(5-hydroxymethyl-2-furylmethylene)hydrazino]quinazoline]",1.97 µM,< 280 °C,among the least effective compounds,–,–
"OCc1ccc(C=NNc2nc(Cl)nc3ccccc23)o1 [Compound 4a, 2-Chloro-4-[2-(5-hydroxymethyl-2-furylmethylene)hydrazino]quinazoline]",0.653 µM,> 280 °C,among the least effective compounds,–,–
"Clc1ccc2nc(Cl)nc(NN=Cc3c[nH]c4ccc(Br)cc34)c2c1 [Compound 4g, 4-[2-(5-bromo-1H-3-indolylmethylene)hydrazino]-2,6-dichloroquinazoline]",0.15 µM,< 280 °C,good potency; also recorded: good activity,–,–
"Clc1nc2ccccc2c2nnc(-c3c[nH]c4ccc(Br)cc34)n12 [Compound 5c, 3-(5-Bromo-3-indolyl)-5-chloro-1,2,4-triazolo[4,3-c]quinazoline]",0.18 µM,200 to 202 °C,good potency; also recorded: good activity,–,–
"Cc1ccc([N+](=O)[O-])cc1S(=O)(=O)N(C)C [BRL50481, reference compound]",0.034 µM,–,–,–,–
O=c1[nH]c(=S)[nH]c2cc(F)c(F)cc12 [A],–,–,–,–,70 nM

# The next lines start with results.
IC50 (PDE7A),melting point,PDE7A inhibitory activity (result in words) (PDE7A),Structure (SMILES),"IC50 (PDE7; ref Sánchez et al., 2013)","IC50 (PDE7; ref Elfeky et al., 2020)"
0.251 µM,> 280 °C,–,"OCc1ccc(-c2nnc3c4ccccc4nc(Cl)n23)o1 [Compound 5a, 5-Chloro-3-(5-hydroxymethyl-2-furyl)-1,2,4-triazolo[4,3-c]quinazoline]",–,–
0.407 µM,> 280 °C,good activity,"Clc1ccc2nc(Cl)n3c(-c4c[nH]c5ccc(Br)cc45)nnc3c2c1 [Compound 5g, 3-(5-Bromo-3-indolyl)-5,9-dichloro-1,2,4-triazolo[4,3-c]quinazoline]",–,–
0.32 µM,> 280 °C,high PDE7 inhibitory potencies,"Clc1nc2ccccc2c2nnc(-c3cccnc3)n12 [Compound 5b, 5-Chloro-3-(3-pyridyl)-1,2,4-triazolo[4,3-c]quinazoline]",–,–
0.343 µM,198 to 200 °C,high PDE7 inhibitory potencies,"Clc1ccc2nc(Cl)nc(NN=Cc3cccnc3)c2c1 [Compound 4f, 2,6-Dichloro-4-[2-(3-pyridylmethylene)hydrazino]quinazoline]",–,–
1.8 µM,< 280 °C,very low PDE7 inhibitory effect,"Clc1ccc2nc(Cl)n3c(-c4ccnc5ccccc45)nnc3c2c1 [Compound 5h, 5,9-Dichloro-3-(4-quinolinyl)-1,2,4-triazolo[4,3-c]quinazoline]",–,–
1.34 µM,< 280 °C,among the least effective compounds,"OCc1ccc(-c2nnc3c4cc(Cl)ccc4nc(Cl)n23)o1 [Compound 5e, 5,9-Dichloro-3-(5-hydroxymethyl-2-furyl)-1,2,4-triazolo[4,3-c]quinazoline]",–,–
0.894 µM,220 to 222 °C,very low PDE7 inhibitory effect,"Clc1nc2ccccc2c2nnc(-c3ccnc4ccccc34)n12 [Compound 5d, 5-Chloro-3-(4-quinolinyl)-1,2,4-triazolo[4,3-c]quinazoline]",–,–
